According to patent publication EP0556947A1, “Use of M1-selective antimuscarinic pyridobenzodiazepinones for the treatment and prevention of axial myopia” (MERCK & CO. INC., priority 1992, dated 1993):
Where two headings read alike, the source gives them in different places.

Assays:
M₁ receptors = target: T1, M₁ receptors (Rattus norvegicus, UniProt P08482); assay: ³H-pirenzepine radioligand binding assay, rat cerebral cortex; conditions: for selectivity for M₁ than for M₃ receptors: M₁ (rat cerebral cortex) versus M₃ (rabbit iris + ciliary body) binding; for Ki: read-out: M1 Ki
T1 construct: M₁ receptors in rat cerebral cortex were labeled with ³H-pirenzepine; from tissue; host or cells: rat cerebral cortex
T1 sequence (P08482 1-460): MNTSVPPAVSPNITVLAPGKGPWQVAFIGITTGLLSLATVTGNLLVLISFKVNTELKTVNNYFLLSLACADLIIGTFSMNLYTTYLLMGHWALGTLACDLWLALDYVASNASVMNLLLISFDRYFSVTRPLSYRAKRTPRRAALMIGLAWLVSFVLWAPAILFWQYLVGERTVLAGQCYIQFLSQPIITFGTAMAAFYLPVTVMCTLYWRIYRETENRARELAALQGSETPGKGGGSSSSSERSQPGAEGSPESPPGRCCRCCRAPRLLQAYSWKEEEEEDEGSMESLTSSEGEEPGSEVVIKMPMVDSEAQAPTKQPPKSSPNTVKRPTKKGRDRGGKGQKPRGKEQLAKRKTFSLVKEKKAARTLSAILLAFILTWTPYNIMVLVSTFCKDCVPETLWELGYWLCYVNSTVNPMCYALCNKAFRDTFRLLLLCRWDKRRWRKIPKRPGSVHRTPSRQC

M₂ receptors = target: T2, M₂ receptors (Rattus norvegicus, UniProt P10980); assay: ³H-AFDX-384 radioligand binding assay, rat heart; conditions: ³H AFDX-384 binding; for Ki: mean of 3-7 determinations ± SEM, read-out: M2 Ki
T2 construct: ³H-AFDX-384 labeled M₂ receptors in rat heart; from tissue; host or cells: rat heart
T2 sequence (P10980 1-466): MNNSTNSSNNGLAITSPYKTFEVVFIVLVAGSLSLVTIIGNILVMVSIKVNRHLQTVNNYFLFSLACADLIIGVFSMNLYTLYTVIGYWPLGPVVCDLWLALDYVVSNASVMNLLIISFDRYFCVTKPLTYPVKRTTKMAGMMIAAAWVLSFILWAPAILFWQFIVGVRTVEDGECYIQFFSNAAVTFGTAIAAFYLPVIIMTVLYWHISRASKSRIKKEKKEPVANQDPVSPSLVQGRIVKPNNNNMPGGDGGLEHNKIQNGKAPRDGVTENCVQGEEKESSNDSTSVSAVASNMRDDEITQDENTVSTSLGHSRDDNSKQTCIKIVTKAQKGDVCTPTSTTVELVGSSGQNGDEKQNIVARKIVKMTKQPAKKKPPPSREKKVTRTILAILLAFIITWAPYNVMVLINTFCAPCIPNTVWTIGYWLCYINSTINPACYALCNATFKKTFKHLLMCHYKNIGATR

M₃ receptors = target: T3, M₃ receptors (Oryctolagus cuniculus, UniProt G1U308); assay: ³H-QNB radioligand binding assay, rabbit iris + ciliary body (minus ciliary processes)
T3 construct: M₃ receptors in rabbit iris + ciliary body; from tissue; host or cells: rabbit iris + ciliary body (minus ciliary processes)

myopia = conditions: 1.0% atropine applied topically at bedtime, treated eye, one year per eye; cited from earlier work
[1] = system: female Dunkin Hartley albino guinea pigs; assay: guinea pig maximization test (sensitization); type: in vivo; conditions: challenge phase, readings on days 24 and 25
Procedure: The guinea pig maximization test is required by the U.S. Food and Drug Administration of all drugs intended for ophthalmic administration. […] In Phase I, which is the induction phase, on day 1 two intradermal injections at the highest generally tolerated concentration of the test material were administered in the shaved intercapsular area (O.1ml of the test agent in a 50:50 mixture of Freund's complete adjuvant and distilled water). On day 7, approximately 400mg of a mixture of 10% sodium laurel sulfate in petrolatum was applied to the shaved intercapsular area. On day 8, 400mg of a mixture of the test compound in petrolatum was applied, on a 2 x 4 cm piece of Whatman paper to the shaved intercapsular area, along with Blenderm tape.
In Phase II, which is the challenge phase, on day 22, 200mg of petrolatum was applied to the shaved right flank, while 200mg of test compound at the highest non-irritant concentration (micronized in petrolatum) was applied to the shaved left flank, with each application being occluded for 24 hours.

Form-deprivation myopia = assay: form-deprivation myopia model in chicks (eyelid suture); type: in vivo, White Leghorn chicks; conditions: expected from M₁ potency relative to pirenzepine; no data reported
Procedure: Form-deprivation myopia is induced in day-old White Leghorn chicks under aseptic conditions and other anesthesia by eyelid suture to one eye. The chicks are maintained on a 12-hour light:dark cycle. […] Drug is injected daily subconjunctivally during the light cycle. At two weeks of age the animals are sacrificed and axial and equatorial dimensions of unfixed eyes are measured with vernier calipers independently by two observers.

[2] = system: axial enlargement of the eye; conditions: ocular administration under image deprivation; cited from earlier work
[3] = ³H-QNB binding, rabbit iris + ciliary body (minus ciliary processes)
[4] = ³H Pirenzepine binding, rat cerebral cortex
[5] = ³H-QNB binding, rabbit iris + ciliary body (minus ciliary processes), mean of 3-7 determinations ± SEM, read-out: M3 Ki

T3 sequence (G1U308 1-599): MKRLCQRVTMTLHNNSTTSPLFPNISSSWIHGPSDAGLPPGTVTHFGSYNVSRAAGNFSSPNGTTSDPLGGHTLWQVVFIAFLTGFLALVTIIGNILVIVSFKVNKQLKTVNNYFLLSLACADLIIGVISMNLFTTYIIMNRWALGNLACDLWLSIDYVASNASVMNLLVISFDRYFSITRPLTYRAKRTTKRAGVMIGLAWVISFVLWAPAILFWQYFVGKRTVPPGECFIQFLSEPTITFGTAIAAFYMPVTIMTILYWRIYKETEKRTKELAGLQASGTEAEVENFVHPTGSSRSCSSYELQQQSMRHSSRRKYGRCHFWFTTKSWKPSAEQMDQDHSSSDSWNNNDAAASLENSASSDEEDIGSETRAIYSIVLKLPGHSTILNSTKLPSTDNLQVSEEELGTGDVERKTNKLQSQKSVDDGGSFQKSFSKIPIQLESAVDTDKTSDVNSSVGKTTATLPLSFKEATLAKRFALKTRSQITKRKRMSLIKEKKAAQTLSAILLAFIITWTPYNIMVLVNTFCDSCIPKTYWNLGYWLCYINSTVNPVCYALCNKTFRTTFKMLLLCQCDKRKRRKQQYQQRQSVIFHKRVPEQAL

In the case of `CN1[C@@H]2CC[C@H]1C[C@@H](OC(=O)C(CO)c1ccccc1)C2` (some centres unmarked) [Atropine, reference compound], the “M1 nH (Hill Coefficient)” value (M₁ receptors) is reported as 1.5, the “M2 nH (Hill Coefficient)” value (M₂ receptors) is reported as 1.05 and the Ki (M₃ receptors) is reported as 0.37 nM. For the same molecule, the “M3 nH (Hill Coefficient)” value (M₃ receptors; [3]) was 1.1 and the “progression of the myopia” value (myopia) was “halted”.

In the case of `CN1CCC(C(=O)N2c3ccccc3C(=O)Nc3cccnc32)CC1` [Nuvenzepine, 11-(1-Methylpiperidin-4-carbonyl)-5,11-dihydro-6H -pyrido[2,3-b][1,4]benzodiazepin-6-one], the “selectivity for M₁ than for M₃ receptors” value (M₁ receptors) is reported as 20 fold, the Ki (M₁ receptors) is reported as 1.5 nM and the “M1 nH (Hill Coefficient)” value (M₁ receptors; [4]) is reported as 0.9. The “M2 nH (Hill Coefficient)” value (M₂ receptors) was 1.03, the Ki (M₂ receptors) was 248 nM and the “M3 nH (Hill Coefficient)” value (M₃ receptors; [3]) was 0.80. For the same molecule, the Ki (M₃ receptors; [5]) was 29.7 nM, the “grade of skin reaction” value ([1]; in any test animal) was 0 and the “effectiveness in myopia therapy” value (Form-deprivation myopia) was “at least as effective as pirenzepine”.

For `CN1CCN(CC(=O)N2c3ccccc3C(=O)Nc3cccnc32)CC1` [Pirenzepine, reference compound], the “grade of skin reaction” value ([1]; in six of nine animals) was 1 and the “grade of skin reaction” value ([1]; in two of nine animals) was 2.

For `CN1CCCC(C(=O)N2c3ccccc3C(=O)Nc3cccnc32)C1` (centres unmarked) [Rispenzepine, 11-(1-Methylpiperidin-3-carbonyl)-5,11-dihydro-6H -pyrido[2,3-b][1,4]benzodiazepin-6-one], the “selectivity for M₁ than for M₃ receptors” value (M₁ receptors) was 15 fold, the Ki (M₁ receptors) was 2.61 nM and the “M1 nH (Hill Coefficient)” value (M₁ receptors; [4]) was 0.9. The “M2 nH (Hill Coefficient)” value (M₂ receptors) was 1.00, the Ki (M₂ receptors) was 226 nM and the “M3 nH (Hill Coefficient)” value (M₃ receptors; [3]) was 0.84. For the same molecule, the Ki (M₃ receptors; [5]) was 38.9 nM, the “grade of skin reaction” value ([1]; in any test animal) was 0 and the “effectiveness in myopia therapy” value (Form-deprivation myopia) was “at least as effective as pirenzepine”.

In the case of `CN1CCc2cccc3c2[C@H]1Cc1ccc(O)c(O)c1-3` [apOmorphine], the “axial enlargement of the eye” value [2] is given as “inhibit or actually prevent”.
